# Data: patent US20080019910A1, “Cancer Treatment and Cancer Treatment Efficacy Prediction by Blocking and Detecting Protease Inhibitors” (priority 2004, published 2008)
# How the values were obtained:
# [1] = system: wild-type and PAI-1 gene-deficient fibrosarcoma cell lines; experiment: Clonogenic assay (colony formation in soft agar); type: cell-based, mouse; settings: PAI-1−/− versus wild type fibrosarcoma cells
# Description: The cell lines described in Example 1 were used. The cells were in passage 35 (wild-type cells) and passage 50 (PAI-1 gene deficient cells). […] Gentle aspiration was repeated using a 1 ml syringe to achieve single cell suspension. 1 ml was then plated in triplicate in Petri dishes upon a feeder layer of SRBC (see separate paragraph for preparation of these). When the agar had solidified, 1 ml of media was added on top. 18-24 dishes were placed on plastic trays and two Petri dishes containing water were placed on each tray for conditioning. […] Colonies (>64 cells) were counted after 3 weeks. The experimental drugs were dissolved in media×300 the final concentration. […] Viable cells were counted after 8 minutes.
# [2] = In vivo toxicity (weight loss, white blood cells) in PAI-1 +/+ and PAI-1 −/− mice; settings: 75 mg/kg i.p.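 Note: nude META/Bom nu/nu mice of both sexes, 24-30 g, blood taken for hematology on day 3 (anticipated WBC nadir) and on day 5 after dosing.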
# Description: We investigated the sensitivity of the intact mouse by a “comparison” of sensitivity between the PAI-I +/+ and −/− mice in terms of weight loss.
# Furthermore blood was sampled on the day of expected nadir (day 3 (WBC)) and day 5, with hematological evaluation.
# Mice: META™/Bom nu/nu; PAI-1+/+ and PAI-1 −/−. Size (gram): 24-30 grams females and males.
# The drug was administered i.p., freshly made, relative to body weight, in a NaCl solvent (Batch 3036111) according to the following table:
# [3] = system: PAI-1−/− fibrosarcoma cells; experiment: LDH release cytotoxicity assay; type: cell-based, mouse; settings: for LDH release (% of total activity): PAI-1−/− cells; for sensitivity to treatment (LDH release): PAI-1−/− compared with PAI-1+/+ fibrosarcoma cells; for cell lysis (LDH release): both PAI-1−/− and PAI-1+/+ fibrosarcoma cells
# From the text: (§1) The damage of the plasma membrane is classically evaluated as a parameter for cell death. In vivo the plasma membrane of apoptotic cells persists until the cell is phagocytised. In contrast, necrotic cell death results in leakage of cytoplasm to the extracellular environment, which leads to an inflammatory response. Under cell culture conditions, cells that have been subjected to an apoptotic stimulus will initially die by apoptosis, but later shift into secondary necrosis due to lack of phagocytosis in the cell culture. Cytotoxicity or cell lysis can be measured by determining the release of lactate dehydrogenase (LDH) in the culture supernatant. For this purpose the “Cytotoxicity detection kit” (Roche, Mannheim, Germany) was employed.
# (§2) PAI-1−/− and PAI-1+/+ fibrosarcoma cells were seeded in a 96-well microtiter plate (2500 cells/well). Fifty μl of culture supernatant (total: 200 μl) is transferred to a new 96-well microtiter plate and mixed with 50 μl of a substrate mix. The remaining supernatant is discarded, and the remaining intact cells are lysed by addition of 200 μl of lysis buffer (1% Triton-X100 in CM). After 30 min lysis at 37° C., 50 μl of lysate is transferred to a new 96-well microtiter plate and mixed with 50 μl of a substrate mix. The cell culture supernatant and lysate are incubated for 10 min with the substrate mix protected from light. The absorbance is measured on a spectrophotometer at λ1=490 nm and reference λ2=650 nm. The amount of released LDH in % is related to total amount: [formula] Results
# [4] = system: PAI-1+/+ fibrosarcoma cells; experiment: LDH release cytotoxicity assay; type: cell-based, mouse; settings: PAI-1+/+ cells
# From the text: as §1, §2
# [5] = system: TIMP-1 +/+ and TIMP-1 −/− fibrosarcoma cell lines; experiment: DNA-histone complex assay; type: cell-based, mouse
# [6] = system: TIMP-1−/− and TIMP-1+/+ fibrosarcoma cells; experiment: LDH release cytotoxicity assay; type: cell-based, mouse
# From the text: as §1
# TIMP-1−/− and TIMP-1+/+ fibrosarcoma cells (see above method for establishment of fibrosarcoma cells from mice) were seeded in a 96-well microtiter plate (2500 cells/well). After 24 hours, cells are treated with etoposide for 24 h. Fifty μl of culture supernatant (total: 200 μl) is transferred to a new 96-well microtiter plate and mixed with 50 μl of a substrate mix. The remaining supernatant is discarded, and the remaining intact cells are lysed by addition of 200 μl of lysis buffer (1% Triton-X100 in CM). […] The absorbance is measured on a spectrophotometer at λ1=490 nm and reference λ2=650 nm. […]
# [7] = system: PAI-1 transfected PAI-1−/− fibrosarcoma cells; experiment: LDH release after reintroduction of PAI-1 expression; type: cell-based, mouse; settings: PAI-1−/−(PAI-1 pool) versus PAI-1−/− (vector pool) and parental PAI-1−/− cells
# Description: Transfection of PAI-1−/− fibrosarcoma cells was performed by the use of Lipofectamine 2000 ([…]) according to the manufactures instructions employing 2×10^5 cells. After 2 days the cells were seed in tissue culture flasks and 100 μg/ml Hygromycin was added to the medium to select for transfected cells in pooled population. Experiments were performed 2 months after transfection. The sensitivity to apoptosis was measured by treating the cells with etoposide and TNF-α and detecting the LDH release as described in Example 4.
compound,measurement,setting,value
Nc1ccn([C@@H]2O[C@H](CO)[C@@H](O)[C@@H]2O)c(=O)n1 [ARA-C],sensitivity in clonogenic assay (colony formation),[1],significantly more sensitive
N.N.[Cl][Pt][Cl] [cisplatin],sensitivity in clonogenic assay (colony formation),[1],significantly more sensitive
COc1cccc2c1C(=O)c1c(O)c3c(c(O)c1C2=O)C[C@@](O)(C(=O)CO)C[C@@H]3O[C@H]1C[C@H](N)[C@H](O)[C@H](C)O1 [doxorubicin],sensitivity in clonogenic assay (colony formation),[1],significantly more sensitive
COc1cc([C@@H]2c3cc4c(cc3[C@@H](O[C@@H]3O[C@@H]5CO[C@@H](C)O[C@H]5[C@H](O)[C@H]3O)[C@H]3COC(=O)[C@H]23)OCO4)cc(OC)c1O [etoposide],day of WBC nadir,[2]; both genotypes,3 days
same,effect on white blood cell count (WBC),"[2]; both genotypes, p=0.0003",suppresses white blood cell count
same,difference in WBC response between PAI-1 +/+ and PAI-1 −/− mice,[2]; p=0.99,no difference
same,weight loss in treated mice,"[2]; treated versus untreated, p<0.0001",significant loss of weight
same,"Drug induced effect on weight loss (weight, initial = 100)","[2]; PAI-1 +/+ female mice, 22.0 hours",101.2
same,"Drug induced effect on weight loss (weight, initial = 100)","[2]; PAI-1 +/+ female mice, 44.5 hours",98.3
same,"Drug induced effect on weight loss (weight, initial = 100)","[2]; PAI-1 +/+ female mice, 67.0 hours",98.2
same,"Drug induced effect on weight loss (weight, initial = 100)","[2]; PAI-1 +/+ female mice, 93.5 hours",98.4
same,"Drug induced effect on weight loss (weight, initial = 100)","[2]; PAI-1 +/+ female mice, 120.0 hours",97.7
same,"Drug induced effect on weight loss (weight, initial = 100)","[2]; PAI-1 +/+ male mice, 22.0 hours",97.6
same,"Drug induced effect on weight loss (weight, initial = 100)","[2]; PAI-1 +/+ male mice, 44.5 hours",94.9
same,"Drug induced effect on weight loss (weight, initial = 100)","[2]; PAI-1 +/+ male mice, 67.0 hours",92.9
same,"Drug induced effect on weight loss (weight, initial = 100)","[2]; PAI-1 +/+ male mice, 93.5 hours",91.0
same,"Drug induced effect on weight loss (weight, initial = 100)","[2]; PAI-1 +/+ male mice, 120.0 hours",91.8
same,"Drug induced effect on weight loss (weight, initial = 100)","[2]; PAI-1 −/− female mice, 22.0 hours",99.9
same,"Drug induced effect on weight loss (weight, initial = 100)","[2]; PAI-1 −/− female mice, 44.5 hours",99.1
same,"Drug induced effect on weight loss (weight, initial = 100)","[2]; PAI-1 −/− female mice, 67.0 hours",99.6
same,"Drug induced effect on weight loss (weight, initial = 100)","[2]; PAI-1 −/− female mice, 93.5 hours",98.7
same,"Drug induced effect on weight loss (weight, initial = 100)","[2]; PAI-1 −/− female mice, 120.0 hours",100.3
same,"Drug induced effect on weight loss (weight, initial = 100)","[2]; PAI-1 −/− male mice, 22.0 hours",99.1
same,"Drug induced effect on weight loss (weight, initial = 100)","[2]; PAI-1 −/− male mice, 44.5 hours",96.3
same,"Drug induced effect on weight loss (weight, initial = 100)","[2]; PAI-1 −/− male mice, 67.0 hours",96.4
same,"Drug induced effect on weight loss (weight, initial = 100)","[2]; PAI-1 −/− male mice, 93.5 hours",95.6
same,"Drug induced effect on weight loss (weight, initial = 100)","[2]; PAI-1 −/− male mice, 120.0 hours",97.0
same,LDH release (% of total activity),"[3]; 1.25 μM etoposide, 48 h",41.10%
same,sensitivity to treatment (LDH release),[3],significantly more sensitive
same,cell lysis (LDH release),[3],dose-dependent cell lysis
same,LDH release (% of total activity),"[4]; 1.25 μM etoposide, 48 h",1%
same,apoptosis induction,[5],induced apoptosis
same,sensitivity to treatment (LDH release),[6]; TIMP-1−/− compared with TIMP-1+/+ fibrosarcoma cells,significantly more sensitive
same,cell lysis (LDH release),[6]; both TIMP-1−/− and TIMP-1+/+ fibrosarcoma cells,dose-dependent cell lysis
same,resistance to induced cell death (LDH release),[7],significantly more resistant
same,sensitivity in clonogenic assay (colony formation),[1],significantly more sensitive
CC[C@]1(O)C[C@H]2CN(CCc3c([nH]c4ccccc34)[C@@](C(=O)OC)(c3cc4c(cc3OC)N(C=O)[C@H]3[C@@](O)(C(=O)OC)[C@H](OC(C)=O)[C@]5(CC)C=CCN6CC[C@]43[C@@H]65)C2)C1 [vincristine],sensitivity in clonogenic assay (colony formation),[1],significantly more sensitive
TNF-α,LDH release (% of total activity),"[3]; 2.5 ng/ml TNF-α, 24 h",46.3%
same,sensitivity to treatment (LDH release),[3],significantly more sensitive
same,cell lysis (LDH release),[3],dose-dependent cell lysis
same,LDH release (% of total activity),"[4]; 2.5 ng/ml TNF-α, 24 h",7.3%
same,resistance to induced cell death (LDH release),[7],significantly more resistant
